Results taken from article PMC11574045, “A cofactor-induced repressive type of transcription factor condensation can be induced by synthetic peptides to suppress tumorigenesis” (The EMBO Journal, 2024).
Values joined by “and” are separate entries in the source; they are usually repeats but may differ in a detail not shown here. Equal values may be shown once. Ends that are not written are not given here.

Key:
TEAD4 = target: T1, TEAD4 (Homo sapiens, UniProt Q15561); assay: FRAP of TEAD4 droplets formed from purified protein; type: biochemical; settings: purified TEAD4 protein treated with FAM-GLUP
T1 construct: His; made in house; host or cells: Escherichia coli BL21(DE3)
T1 sequence (Q15561 whole entry): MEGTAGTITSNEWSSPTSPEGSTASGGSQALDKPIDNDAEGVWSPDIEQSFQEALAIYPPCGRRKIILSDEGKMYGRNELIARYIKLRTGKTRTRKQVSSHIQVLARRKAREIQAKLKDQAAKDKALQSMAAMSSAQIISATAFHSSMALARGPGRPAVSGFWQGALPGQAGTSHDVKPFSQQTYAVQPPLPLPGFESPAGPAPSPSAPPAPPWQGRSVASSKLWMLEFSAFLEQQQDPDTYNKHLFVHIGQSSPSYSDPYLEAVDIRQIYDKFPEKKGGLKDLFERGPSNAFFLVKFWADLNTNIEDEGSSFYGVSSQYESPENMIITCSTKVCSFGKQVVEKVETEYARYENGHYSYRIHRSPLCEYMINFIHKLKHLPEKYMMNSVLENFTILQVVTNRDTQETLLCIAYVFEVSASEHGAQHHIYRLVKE
Text: (A) Schematic of the strategy of the initial version of a linker peptide termed “glup”. […] The two TEAD4 molecules are colored cyan and blue, respectively. […] Monomer, dimer, and oligomer TEAD4 bands are labeled. (D) Schematic illustration of an optimized version of the linker peptide (referred to as GLUP). […] (F) Comparison of glup with GLUP. MW, molecular weight. […] The quantification graph represents the data collected from 10 images (n = 10). Data shown as means ± SD represent the representative results from two independent experiments. Significance was tested using one-way ANOVA, followed by the Tukey’s post-hoc test. *p < 0.05; ****p < 0.0001. NaCl (+), 20 mM; NaCl (++), 150 mM; NaCl (+++), 500 mM. Scale bar, 10 μm. […] For each photobleached spot, the fluorescence recovery curve was traced. The graph represents the data collected from 5 droplets (n = 5). t1/2: fluorescence recovery time; Rf: mobile fraction. […] The quantification graph represents the data collected from 9 cells (n = 9). […] The data were analyzed using one-way ANOVA, followed by the Tukey’s post-hoc test. n.s., no significance; ****p < 0.0001. […] Three images were gradually taken during pre-bleach, bleaching pulses, followed by fluorescence recovery as indicated on the graph (left). […] White circles indicated the bleaching condensates. t1/2: fluorescence recovery time; Rf: mobile fraction. […]

[1] = test system: trypsin, actinase E, thermolysin, proteinase K, chymotrypsin-α; assay: Stability of peptides treated with proteases (gel); type: in vitro ADME; settings: 30 °C for 1 h, gel read-out
Text: To improve the stability and bioavailability of glup, we subjected it to disulfide-cyclization and C-terminal amidation to generate a macrocyclic version of the peptide and denoted it as GLUP (Fig. 5D). […] However, there were no significant differences in solubility, permeability, and TEAD4-binding affinity between GLUP and glup (Fig. 5F and Appendix Figs. S5F–H). […] These droplets rapidly dissolved when exposed to increased concentrations of NaCl (Fig. 5G, right).
Appendix Figure S5. Optimization of the Linker Peptide
A. Fluorescence polarization (FP) assay to detect the interaction of purified TEAD4 protein with FA M-labeled glup. mP, millipolarization (FP values). B. Microscale […]
protein with glup or glupmut. Kd values are shown. glupmut, an interaction-dead control peptide with the sequence […]. C. Crosslinking assay of TEAD4 […]
oligomerization in the presence of glup or glupmut after DSS treatment. D. Crosslinking assay of TEAD4 oligomerization in the presence of glup or GLUP with or without DSS treatment. E. Gels assessing protein stability levels of glup and GLUP after they were treated with indicated proteases. TR, trypsin; AE, actinase E; TH, thermolysin; PK, proteinase K; CH-α, chymotrypsin-α. […]
(right). […] The data were analyzed using one-way ANOVA, followed by the Tukey’s post-hoc test. *, p < 0.05; **, […]

HGC-27 xenograft tumors = assay: HGC-27 xenograft tumor formation assay; type: in vivo, mouse; design: Tumor volume, GLUP+ / Tumor volume, GLUP++: unit not given here
Text: Mice used in this study were from SLAC Laboratory Animal (Shanghai, China), and included 4-week-old BALB/c nude mice (female) and 8-week-old C57BL/6J mice (male and female). Tumors were allowed to grow to an average size of ~60 mm^3 and then the mice were randomly allocated to groups of 5–6 animals. No blinding was used in the treatment schedules for these experiments since the different treatments were identified by different marks on the tail. Based on our previous experience, 5–6 animals per group would provide statistically significant data while keeping the number of animals used to a minimum. Tumor size was determined by taking caliper measurements of tumor length, width and depth; tumor volume was calculated as 0.5236 × length × width × depth (mm^3).
Healthy female BALB/c nude mice were maintained in pathogen-free conditions to which they were allowed to acclimate for 1 week before being used. For the tumor formation assay, tumor cells (1 × 10^6) were injected into the respective flanks of the mice. Mice in which tumors were detected with an average size of ~60 mm^3 were biweekly administered 1 or 5 mg/kg GLUP via subcutaneous injection. These mice were sacrificed after 4 weeks, and tumor volumes were then measured.

HGC-27 cells = assay: RNA sequencing; type: cell-based, human; settings: GLUP-treated HGC-27 cells
Procedure: For RNA sequencing, HGC-27 cells in 6-well plates were treated with GLUP peptide at 10 μg/ml for 48 h. The stocking buffer (20 mM HEPES pH 7.5, and 100 mM NaCl) was used as a negative control. Total RNA was extracted from at least two biological replicates. Extracted RNA was monitored for its quality using a 2100 Expert Bioanalyzer (Agilent) before being sent for library preparation and RNA sequencing (Majorbio). The RNA sequencing data were analyzed on a free online Majorbio I-Sanger Cloud Platform (www.majorbio.com).

## RRVCVHFHFSLSLR-NH2 (C-terminus assumed) [glup]
TEAD4
  mobile fraction (FRAP): about 86%
[1]
  Stability towards various proteases: almost completely digested
[1]; listed as GLUP
  Stability towards various proteases: remained intact
HGC-27 xenograft tumors; 1 or 5 mg/kg GLUP
  Growth of xenografted tumors: inhibited growth of xenografted tumors in a dose-dependent manner
HGC-27 xenograft tumors; nude mice, 1 mg/kg GLUP s.c. biweekly, individual mice, n = 5 (source data Fig 7E), 1 mg/kg
  Tumor volume, GLUP+: 0.858 and 0.629 and 0.519 and 0.753 and 0.732
HGC-27 xenograft tumors; nude mice, 5 mg/kg GLUP s.c. biweekly, individual mice, n = 5 (source data Fig 7E), 5 mg/kg
  Tumor volume, GLUP++: 0.345 and 0.321 and 0.256 and 0.423 and 0.503
HGC-27 cells
  GSEA of TEAD signature genes: negative enrichment of TEAD signature genes
